Source: US4089959A, “Long-acting xanthine bronchodilators and antiallergy agents” (priority 1976, dated 1978)

Tests used:
[1] = test system: guinea pig tracheal chain; assay: SP: spasmolytic activity in vitro, guinea pig tracheal chain preparation; assay type: cell-based; details: Cavia porcellus; given as fraction of molar, e.g. M/1000; read-out: SP in vitro, C: molar (M) concentration required to produce maximum relaxation
Text: SP: Spasmolytic activity evaluated in vitro using guinea pig tracheal chain preparation, and expressed as the molar (M) concentration required to produce maximum relaxation. The method used in that of Castillo and de Beer, J. Pharmac. Expt. Therap. 90, 104, 1947.

[2] = test system: antigen-induced bronchconstriction; assay: AA: antiallergy (anti-anaphylactic) activity against antigen-induced bronchoconstriction in sensitized rats; details: 1h
Text: The animals are subdivided into control and test groups.
Test animals receive a drug either orally, intraperitoneally or intravenously and are challenged with intravenous antigen at fixed time intervals after dosing. Antigen-induced increases in tracheal pressure are monitored and reflect the extent of bronchoconstriction.

[3] = test system: histamine-induced bronchoconstriction; assay: BD: bronchodilator activity against histamine-induced bronchoconstriction in the guinea pig; assay type: in vivo; details: for lethal (animals) / dose showing lethal effects: guinea pig; for potency, in words: 4280 at 20 mpK po vs 4258 at 15 mpK po; for dose showing lethal effects: po
Procedure: A modification of the method of Siegmund. O. H., et.al., J. Pharmacol. and Exp. Therap. 90:254-9, 1947, is used. […] Times for prostration are recorded.

[4] = test system: antigen-induced wheal formation; assay: PCA: passive cutaneous anaphylaxis in the rat; assay type: in vivo; details: 20 mg/kg po
Procedure: PCA: Antianaphylactic activity against passive cutaneous anaphylaxis in the rat, expressed as % protection against antigen-induced wheal formation.
The method used is that of Ogilvie, B. M., Immunology 12, 113-131 (1967). Reaginic […] antibodies develope in that rat following subcutaneous injection of Nippostrongylus brasiliensis larvae. Antisera, collected 28 days later are injected subcutaneously into new rats.

LD50, mouse = details: in vivo, po
Procedure: (§1) The LD50 was determined in three species, the mouse (male, 18-25 g), the albino rat (female, 150-200 g) and the albino guinea pig (male 180-280 g) by oral administration and in the albino rat by intraperitoneal administration. The animals are fasted overnight prior to testing. Six groups of 10 animals are used; five groups are dosed with the test substance, the sixth group serves as a control and receives the drug vehicle at the highest test concentration. The compounds were administered in a 0.5% gum tragacanth solution in distilled water using a constant logarithmic increment in dose. Dose volume ranged from […].
The animals were housed five per cage (rat and guinea pig) or ten per cage (mouse) with free access to food and water. The number of dead animals was recorded daily for five consecutive days. The total mortality per group of 10 for each dose level was recorded and LD50 with Confidence Limits calculated according to the method described by Weil, C. S., Biometrics 8(3): 249-263, 1952.

in vivo = assay: in vivo
Procedure: as §1
The animals were housed five per cage (rat and guinea pig) or ten per cage (mouse) with free access to food and water. The number of dead animals was recorded daily for five consecutive days.

[5] = test system: histamine-induced bronchoconstriction; assay: CP: cardiopulmonary activity against histamine-induced bronchoconstriction in the dog; assay type: in vivo; details: histamine administration; vs theophylline
Text: Int. Pharmacodyn. Therap. […] Pretreatment with bronchodilator drugs aims to block the bronchospastic response to histamine. Each dog serves as its own control.

CCCC(C)Cn1c(=O)n(C)c(=O)c2[nH]c(C)nc21 (stereo not shown) [Compound 4373, 1,8-dimethyl-3-(2-methyl-1-pentyl)xanthine]
EC (maximum relaxation) [1]: 0.05 M | AA, % protection ([2]; 20 mpK ip): 54% | BD, % protection ([3]; 40 mpK po, 30'): 71% | BD, % protection ([3]; 40 mpK po, 4h): 87% | BD, % protection ([3]; 40 mpK po, 6h): 96% | BD, % protection ([3]; 80 mpK po, 30'): 81% | BD, % protection ([3]; 80 mpK po, 4h): 100%

CCC(C)Cn1c(=O)n(C)c(=O)c2[nH]c(C)nc21 (stereo not shown) [Compound 4383, 1,8-dimethyl-3-(2-methyl-1-butyl) xanthine]
Wheal Diameter, % Δ [4]: 50% | Wheal Intensity, % Δ [4]: 48% | Wheal Diameter: Mean ± S.E.M., Response ([4]; control 1.50 ± 0.16): 0.74 ± 0.16 cm | Wheal Intensity: Mean ± S.E.M., Response ([4]; control 2.17 ± 0.21): 1.13 | LD50 at 120 h (LD50, mouse): 66.6 mg/kg | EC (maximum relaxation) [1]: 0.001 M | AA, % protection ([2]; 2.5 mpK po): 58% | AA, % protection ([2]; 4 mpK ip): 57% | BD, % protection ([3]; 10 mpK po, 30'): 35% | bronchodilation potency in the BD (guinea pig) assay, in words ([3]; 10 mpK po, 4383 vs 4388): about the same bronchodilation potency as 4388 | BD, % protection ([3]; 10 mpK po, 2h): 63% | BD, % protection ([3]; 10 mpK po, 6h): 66% | toxic effects in the BD (guinea pig) assay, in words ([3]; 20 mpK po): no toxic effects | BD, % protection ([3]; 20 mpK po, 1h): 92% | BD, % protection ([3]; 20 mpK po, 4h): 100% | BD, % protection ([3]; 20 mpK po, 6h): 97% | LD50 at 120 h (in vivo; ip, rat): 24.6 mg/kg | LD50 at 120 h (in vivo; po, guinea pig): 21.7 mg/kg | LD50 at 120 h (in vivo; po, rat): 88.7 mg/kg | bronchodilation in the dog, in words [5]: significantly reduces the decrease in pulmonary compliance and increase in pulmonary resistance due to histamine administration

Cc1nc2c([nH]1)c(=O)n(C)c(=O)n2CC(C)C [Compound 4388, 1,8-dimethyl-3-isobutylxanthine]
EC (maximum relaxation) [1]: 0.001 M | AA, % protection ([2]; 2.5 mpK po): 50% | AA, % protection ([2]; 75 mpK ip): 70% | BD, % protection ([3]; 10 mpK po, 1h): 76% | BD, % protection ([3]; 10 mpK po, 4h): 73% | BD, % protection ([3]; 10 mpK po, 6h): 80% | toxic effects in the BD (guinea pig) assay, in words ([3]; 20 mpK po): pronounced toxicity and was even lethal to one animal | bronchodilator potency, in words ([3]; general statement): great potency and is long-acting | lethal (animals) ([3]; 20 mpK po): 1/4

CCC(C)Cn1c(=O)n(C)c(=O)c2[nH]cnc21 (stereo not shown) [Compound 4280]
EC (maximum relaxation) [1]: 0.001 M | AA, % protection ([2]; 15 mpK ip): 56% | BD, % protection ([3]; 20 mpK po, 30'): 86% | BD, % protection ([3]; 20 mpK po, 1h): 86% | BD, % protection ([3]; 20 mpK po, 2h): 80% | BD, % protection ([3]; 20 mpK po, 4h): 13% | potency, in words [3]: equal potency | lethal (animals) ([3]; 80 mpK po): 3/8 | dose showing lethal effects [3]: 80 mpK

CC(C)Cn1c(=O)n(C)c(=O)c2[nH]cnc21 [Compound 4258]
EC (maximum relaxation) [1]: 0.001 M | AA, toxicity noted in place of % protection ([2]; 2.0 mpK ip): tox | BD, % protection ([3]; 15 mpK po, 30'): 45% | BD, % protection ([3]; 15 mpK po, 2h): 75% | BD, % protection ([3]; 15 mpK po, 4h): 39% | potency, in words [3]: equal potency | lethal (animals) ([3]; 25 mpK po): 2/4 | dose showing lethal effects [3]: 25 mpK

Cc1nc2c([nH]1)c(=O)n(C)c(=O)n2C [Compound 4296]
EC (maximum relaxation) [1]: 0.0714 M | BD, % protection ([3]; 100 mpK po, 8h): 23% | BD, % protection ([3]; 150 mpK po, 30'): 68% | BD, % protection ([3]; 150 mpK po, 8h): 85%

Cn1c(=O)c2[nH]cnc2n(C)c1=O [Theophylline, 1,3-dimethylxanthine]
EC (maximum relaxation) [1]: 0.1 M
